“And” between values parts separate entries of the source, which are not always exact repeats. Equal entries are not always repeated.
What was measured:
[1] = tested on: C. elegans; test: C. elegans motor phenotype scoring on solid media (Punc/jerky-unc, coiled, paralyzed), wild-type young adults; assay type: in vivo, Caenorhabditis elegans; conditions: for AVERAGES Fraction Coiled / AVERAGES Fraction Paralyzed / AVERAGES Fraction Punc: average of 3 replicates; for C1 (number of animals) / C2 (number of animals) / Fraction Coiled / Fraction Paralyzed / Fraction Punc / NP (number of animals) / P (number of animals) / Punc (number of animals) / Next Day Animals alive (moving fine): single replicate
[2] = tested on: Pristionchus pacificus; test: Pristionchus pacificus motor disruption dose-response on solid media, 1 h; conditions: for mean % any phene (coiled, jerky-Unc or paralyzed): Pristionchus pacificus young adults, mean of three biological replicates
[3] = 60uM, one hour, young adults, 20 animals per trial, single replicate counts

O=[N+]([O-])c1ccc(N2CCN(CC3CC=CCC3)CC2)cc1 (stereo not drawn) [Nemacol-4]
AVERAGES Fraction Coiled ([1]; 30 μM, 120 min): 0.0741
AVERAGES Fraction Paralyzed ([1]; 30 μM, 120 min): 0.0185
AVERAGES Fraction Punc ([1]; 30 μM, 120 min): 0.5
C1 (number of animals) ([1]; 30 μM, 120 min): 2 and 1
C2 (number of animals) ([1]; 30 μM, 120 min): 0
Fraction Coiled ([1]; 30 μM, 120 min): 0.111 and 0.0556
Fraction Paralyzed ([1]; 30 μM, 120 min): 0.0556 and 0.0
Fraction Punc ([1]; 30 μM, 120 min): 0.556 and 0.5
NP (number of animals) ([1]; 30 μM, 120 min): 5 and 8
P (number of animals) ([1]; 30 μM, 120 min): 1 and 0
Punc (number of animals) ([1]; 30 μM, 120 min): 10 and 9
AVERAGES Fraction Coiled ([1]; 30 μM, 240 min): 0.0
AVERAGES Fraction Paralyzed ([1]; 30 μM, 240 min): 0.0
AVERAGES Fraction Punc ([1]; 30 μM, 240 min): 0.333
C1 (number of animals) ([1]; 30 μM, 240 min): 0
C2 (number of animals) ([1]; 30 μM, 240 min): 0
Fraction Coiled ([1]; 30 μM, 240 min): 0.0
Fraction Paralyzed ([1]; 30 μM, 240 min): 0.0
Fraction Punc ([1]; 30 μM, 240 min): 0.333 and 0.222 and 0.444
NP (number of animals) ([1]; 30 μM, 240 min): 12 and 14 and 10
P (number of animals) ([1]; 30 μM, 240 min): 0
Punc (number of animals) ([1]; 30 μM, 240 min): 6 and 4 and 8
AVERAGES Fraction Coiled ([1]; 30 μM, 360 min): 0.0
AVERAGES Fraction Paralyzed ([1]; 30 μM, 360 min): 0.0
AVERAGES Fraction Punc ([1]; 30 μM, 360 min): 0.111
C1 (number of animals) ([1]; 30 μM, 360 min): 0
C2 (number of animals) ([1]; 30 μM, 360 min): 0
Fraction Coiled ([1]; 30 μM, 360 min): 0.0
Fraction Paralyzed ([1]; 30 μM, 360 min): 0.0
Fraction Punc ([1]; 30 μM, 360 min): 0.0556 and 0.278 and 0.0
NP (number of animals) ([1]; 30 μM, 360 min): 17 and 13 and 18
P (number of animals) ([1]; 30 μM, 360 min): 0
Punc (number of animals) ([1]; 30 μM, 360 min): 1 and 5 and 0
Next Day Animals alive (moving fine) ([1]; 30 μM): alive, recovered
AVERAGES Fraction Coiled ([1]; 60 μM, 30 min): 0.111
AVERAGES Fraction Paralyzed ([1]; 60 μM, 30 min): 0.0
AVERAGES Fraction Punc ([1]; 60 μM, 30 min): 0.8
C1 (number of animals) ([1]; 60 μM, 30 min): 1 and 0
C2 (number of animals) ([1]; 60 μM, 30 min): 2 and 1
Fraction Coiled ([1]; 60 μM, 30 min): 0.167 and 0.0556 and 0.111
Fraction Paralyzed ([1]; 60 μM, 30 min): 0.0
Fraction Punc ([1]; 60 μM, 30 min): 0.7 and 0.9
NP (number of animals) ([1]; 60 μM, 30 min): 2 and 4 and 0
P (number of animals) ([1]; 60 μM, 30 min): 0
Punc (number of animals) ([1]; 60 μM, 30 min): 13 and 16
AVERAGES Fraction Coiled ([1]; 60 μM, 60 min): 0.149
AVERAGES Fraction Paralyzed ([1]; 60 μM, 60 min): 0.037
AVERAGES Fraction Punc ([1]; 60 μM, 60 min): 0.7
C1 (number of animals) ([1]; 60 μM, 60 min): 2 and 0 and 1
C2 (number of animals) ([1]; 60 μM, 60 min): 2 and 1
Fraction Coiled ([1]; 60 μM, 60 min): 0.222 and 0.0588 and 0.167
Fraction Paralyzed ([1]; 60 μM, 60 min): 0.111 and 0.0
Fraction Punc ([1]; 60 μM, 60 min): 0.667 and 0.7 and 0.8
NP (number of animals) ([1]; 60 μM, 60 min): 0 and 4
P (number of animals) ([1]; 60 μM, 60 min): 2 and 0
Punc (number of animals) ([1]; 60 μM, 60 min): 12 and 15
AVERAGES Fraction Coiled ([1]; 60 μM, 90 min): 0.148
AVERAGES Fraction Paralyzed ([1]; 60 μM, 90 min): 0.111
AVERAGES Fraction Punc ([1]; 60 μM, 90 min): 0.741
C1 (number of animals) ([1]; 60 μM, 90 min): 3 and 1 and 0
C2 (number of animals) ([1]; 60 μM, 90 min): 1 and 2
Fraction Coiled ([1]; 60 μM, 90 min): 0.222 and 0.167 and 0.0556
Fraction Paralyzed ([1]; 60 μM, 90 min): 0.222 and 0.0556
Fraction Punc ([1]; 60 μM, 90 min): 0.556 and 0.8 and 0.9
NP (number of animals) ([1]; 60 μM, 90 min): 0
P (number of animals) ([1]; 60 μM, 90 min): 4 and 1
Punc (number of animals) ([1]; 60 μM, 90 min): 10 and 14 and 16
AVERAGES Fraction Coiled ([1]; 60 μM, 120 min): 0.111
AVERAGES Fraction Paralyzed ([1]; 60 μM, 120 min): 0.037
AVERAGES Fraction Punc ([1]; 60 μM, 120 min): 0.8
C1 (number of animals) ([1]; 60 μM, 120 min): 1 and 0
C2 (number of animals) ([1]; 60 μM, 120 min): 1 and 2
Fraction Coiled ([1]; 60 μM, 120 min): 0.111
Fraction Paralyzed ([1]; 60 μM, 120 min): 0.0556 and 0.0
Fraction Punc ([1]; 60 μM, 120 min): 0.7 and 0.9 and 0.8
NP (number of animals) ([1]; 60 μM, 120 min): 2 and 0
P (number of animals) ([1]; 60 μM, 120 min): 1 and 0
Punc (number of animals) ([1]; 60 μM, 120 min): 13 and 16 and 15
AVERAGES Fraction Coiled ([1]; 60 μM, 240 min): 0.0
AVERAGES Fraction Paralyzed ([1]; 60 μM, 240 min): 0.037
AVERAGES Fraction Punc ([1]; 60 μM, 240 min): 0.5
C1 (number of animals) ([1]; 60 μM, 240 min): 0
C2 (number of animals) ([1]; 60 μM, 240 min): 0
Fraction Coiled ([1]; 60 μM, 240 min): 0.0
Fraction Paralyzed ([1]; 60 μM, 240 min): 0.0 and 0.111
Fraction Punc ([1]; 60 μM, 240 min): 0.4 and 0.333 and 0.7
NP (number of animals) ([1]; 60 μM, 240 min): 11 and 12 and 3
P (number of animals) ([1]; 60 μM, 240 min): 0 and 2
Punc (number of animals) ([1]; 60 μM, 240 min): 7 and 6 and 13
AVERAGES Fraction Coiled ([1]; 60 μM, 360 min): 0.0
AVERAGES Fraction Paralyzed ([1]; 60 μM, 360 min): 0.0
AVERAGES Fraction Punc ([1]; 60 μM, 360 min): 0.37
C1 (number of animals) ([1]; 60 μM, 360 min): 0
C2 (number of animals) ([1]; 60 μM, 360 min): 0
Fraction Coiled ([1]; 60 μM, 360 min): 0.0
Fraction Paralyzed ([1]; 60 μM, 360 min): 0.0
Fraction Punc ([1]; 60 μM, 360 min): 0.333 and 0.444
NP (number of animals) ([1]; 60 μM, 360 min): 12 and 10
P (number of animals) ([1]; 60 μM, 360 min): 0
Punc (number of animals) ([1]; 60 μM, 360 min): 6 and 8
Next Day Animals alive (moving fine) ([1]; 60 μM): alive, recovered
any phene, mean % fraction of young adults exhibiting any phenotype (coiled, jerky-Unc or paralyzed) ([1]; 60uM, one hour, mean of three biological replicates): 94.1667%
atypical locomotion (number of animals) [1, 3]: 9 and 8 and 13 and 10 and 2 and 3
coiled (number of animals) [1, 3]: 8 and 7 and 3 and 1 and 4 and 5
no phene (number of animals) [1, 3]: 0 and 3 and 4
paralyzed (number of animals) [1, 3]: 3 and 5 and 1 and 14 and 12
EC50 ([1]; Caenorhabditis elegans, 1 h, Fig. 1, dose-response at 60 min, wild-type young adults, +/- 95% CI, read-out: EC50): 15 ± 2.3 µM
mean % any phene (coiled, jerky-Unc or paralyzed) ([2]; conc 3.75, observed at one hour): 0%
mean % any phene (coiled, jerky-Unc or paralyzed) ([2]; conc 15, observed at one hour): 15.8333%
mean % any phene (coiled, jerky-Unc or paralyzed) ([2]; conc 60, observed at one hour): 100%
EC50 ([2]; Pristionchus pacificus, 1 h, read-out: P. pacificus motor disruption EC50): 19.2 µM

From PMC10066365, “Nemacol is a small molecule inhibitor of C. elegans vesicular acetylcholine transporter with anthelmintic potential” (Nature Communications, 2023)
